# Experimental data: PMC4850295, “Using a Genetically Encoded Sensor to Identify Inhibitors of Toxoplasma gondii Ca^2+ Signaling” (The Journal of Biological Chemistry, 2016)
# Tested on: T1, GCaMP5-expressing T. gondii
# T1 construct: whole extracellular parasites expressing GCaMP5 Ca2+ sensor
# Set-up: species or system GCaMP5-expressing Toxoplasma gondii, extracellular; GCaMP5 fluorescence (cytosolic Ca2+) after 100 uM zaprinast in compound-pretreated extracellular parasites, background-subtracted, relative to zaprinast alone
# Conditions: 100 uM zaprinast stimulation; 10 min pretreatment; mean of two replicates; 0.23 h
# How it was run: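 Read-out is GCaMP5 calcium fluorescence (ex 485/em 525 nm) taken 4 min after 100 μM zaprinast at 37 °C, following 10 min compound pretreatment at 10 μM in duplicate biological replicates. Values are basal-subtracted fold change versus zaprinast-only controls; parasites held extracellular in Ringer's solution.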
row,Compound,fold change in fluorescence relative to zaprinast alone
1,COc1cc(C)c(NC(=O)CN(C)C)cc1Nc1nc(Nc2cccc(F)c2C(N)=O)c2cc[nH]c2n1 [GSK2213727A],1.59
2,CN(C)c1cc(-c2ccc3c(N)n[nH]c3c2)nc(N)n1 [GSK2219329A],0.9361
3,CNC(=O)c1ncccc1Nc1nc(Nc2cc3c(cc2OC)CCCN3C(=O)CN(C)C)nc2[nH]ccc12 [GSK2220400A],1.127
4,CC(C)Nc1cc(-c2ccc3c(N)n[nH]c3c2)nc(N)n1 [GSK2221681A],1.173
5,Nc1nc(Nc2ccccc2)cc(-c2ccc3c(N)n[nH]c3c2)n1 [GSK2225749A],1.117
6,Nc1nc(-c2ccc3c(N)n[nH]c3c2)cc(N2CCCC2)n1 [GSK2227430A],1.158
7,Nc1nc(-c2ccc3c(N)n[nH]c3c2)cc(N2CCCCC2)n1 [GSK2228768A],0.9677
8,O=c1[nH]cc(-c2ccc(N3CCOCC3)cc2)c2sc(-c3cn[nH]c3)cc12 [GSK2276055A],0.8496
9,C[C@@H]1CC[C@@H](C(=O)Nc2ccccc2)CN1c1cc(-c2ccc3c(N)n[nH]c3c2)nc(N)n1 [GSK2286062A],0.9223
10,Nc1nc(-c2ccc3c(N)n[nH]c3c2)cc(N2CCCC(NC(=O)c3ccccc3)C2)n1 (stereo not drawn) [GSK2286775B],1.202
11,C[C@@H]1CC[C@H](C(=O)NC2CCCCC2)CN1c1cc(-c2ccc3c(N)n[nH]c3c2)nc(N)n1 [GSK2291363A],1.384
12,O=c1cc(N2CCOCC2)nc2n(Cc3cccc(C(F)(F)F)c3)ccn12 [GSK2297543A],0.8956
13,O=c1cc(N2CCOCC2)nc2n(Cc3cccc(Cl)c3Cl)c3ccccc3n12 [GSK2299009A],1.093
14,Cc1c(Cn2c3ccccc3n3c(=O)cc(N4CCOCC4)nc23)cccc1C(F)(F)F [GSK2306394A],0.7248
15,Cc1nn2c(=O)cc(N3CCOC(C)C3)nc2n1Cc1cccc(Cl)c1Cl (stereo not drawn) [GSK2373693A],0.7316
16,CNc1nc(-c2ccc3c(N)n[nH]c3c2)cc(N2C[C@@H](C(=O)NC3CCCCC3)OC[C@H]2C)n1 [GSK2375584A],1.379
17,Nc1nccc2scc(-c3ccc4c(c3)CCN4C(=O)Cc3ccccc3)c12 [GSK2576924A],0.9278
18,Nc1nccc2scc(-c3ccc4c(c3)CCN4C(=O)Cc3cc(F)ccc3F)c12 [GSK2587663A],0.7245
19,Nc1ncc(-c2ccncc2)c2scc(-c3ccc4c(c3)CCN4C(=O)Cc3ccccc3)c12 [GSK2592465A],1.243
20,Nc1ncc(-c2cn[nH]c2)c2scc(-c3ccc4c(c3)CCN4C(=O)Cc3ccccc3)c12 [GSK2593067A],1.414
21,Cn1cc(-c2cnc(N)c3c(-c4ccc5c(c4)CCN5C(=O)Cc4ccccc4)csc23)cn1 [GSK2593074A],1.463
22,Cc1ccccc1CC(=O)N1CCc2cc(-c3cn(C)c4ncnc(N)c34)ccc21 [GSK2603346A],1.278
23,Cn1cc(-c2ccc3c(c2)CCN3C(=O)Cc2cccc(F)c2)c2c(N)ncnc21 [GSK2603358A],1.56

row,Compound,fold change in fluorescence relative to zaprinast alone
1,Cn1cc(-c2ccc3c(c2)CCN3C(=O)Cc2cccc(Cl)c2)c2c(N)ncnc21 [GSK2606590A],1.488
2,Cn1cc(-c2ccc3c(c2)CCN3C(=O)Cc2ccccc2Cl)c2c(N)ncnc21 [GSK2608885A],1.437
3,COc1cccc(CC(=O)N2CCc3cc(-c4cn(C)c5ncnc(N)c45)ccc32)c1 [GSK2608899A],0.9364
4,Cc1ccc(CC(=O)N2CCc3cc(-c4cn(C)c5ncnc(N)c45)ccc32)cc1 [GSK2634758A],1.068
5,Nc1ncnc2occ(-c3ccc4c(c3)CCN4C(=O)Cc3cc(F)ccc3F)c12 [GSK2645446A],0.8883
6,c1ccc(Cn2cnc3cc(Nc4ncnc5ccccc45)ccc32)cc1 [GW272142A],1.177
7,NS(=O)(=O)c1cccc(N/C=C2\C(=O)Nc3ccccc32)c1 [GW275616X],0.9797
8,Cc1ccc2c(c1)/C(=N/Nc1ccc(S(N)(=O)=O)cc1)C(=O)N2 [GW275944X],1.616
9,NS(=O)(=O)c1ccc(N/N=C2\C(=O)Nc3ccc(-c4cnco4)cc32)cc1 [GW276655X],1.083
10,CS(=O)(=O)Nc1ccc(N/C=C2\C(=O)Nc3ccccc32)cc1 [GW278681X],1.254
11,Cc1cc(Cl)cc2c1NC(=O)C2=NNc1ccc(S(N)(=O)=O)cc1 [GW279320X],1.035
12,NS(=O)(=O)c1ccc(N/N=C2\C(=O)Nc3ccc(Cl)cc32)cc1 [GW280670X],0.9881
13,Cn1cncc1-c1cc2c(Nc3ccc(OCc4ccccc4)cc3)ncnc2cn1 [GW281179X],1.036
14,COc1cc2ncnc(Nc3ccc4c(cnn4Cc4ccccc4)c3)c2cc1OC [GW282449A],1.119
15,COc1cc2ncnc(Nc3ccc4nc(-c5ccccc5)[nH]c4c3)c2cc1OC [GW282450A],0.9024
16,Cc1cccc2c1NC(=O)/C2=N\Nc1ccc(S(N)(=O)=O)cc1 [GW282536X],1.189
17,c1ccc(COc2ccc(Nc3ncnc4ccc(-c5ccco5)cc34)cc2)cc1 [GW284372X],0.7189
18,O=C1Nc2ccccc2/C1=C/Nc1ccc2[nH]c(=O)[nH]c2c1 [GW284408X],0.9722
19,NS(=O)(=O)c1ccc(N/N=C2\C(=O)Nc3ccc(C(=O)NCCCn4ccnc4)cc32)cc1 [GW290597X],1.214
20,COc1ccc2[nH]c3c4[nH]c5ccc(OC)cc5c4c4c(c3c2c1)C(=O)NC4=O [GW296115X],0.5167
21,NS(=O)(=O)c1ccc(N/C=C2\C(=O)Nc3ccc4ncsc4c32)cc1 [GW297361X],1.167
22,NS(=O)(=O)c1ccc(N/N=C2\C(=O)Nc3ccc(C(=O)NCCc4c[nH]cn4)cc32)cc1 [GW300660X],1.243
23,O=C1Nc2ccccc2/C1=C/Nc1ccc(-n2cncn2)cc1 [GW301789X],1.111

row,Compound,fold change in fluorescence relative to zaprinast alone
1,CN(C)c1cc2c(Nc3ccc4nc(Cc5ccccc5)[nH]c4c3)ncnc2cn1 [GW301888X],1.125
2,NS(=O)(=O)c1ccc(N/N=C2\C(=O)Nc3ccc4ncccc4c32)cc1 [GW305178X],0.9853
3,Cn1cncc1-c1ccc2ncnc(Nc3ccc(OCc4ccccc4)cc3)c2c1 [GW320571X],0.8423
4,C/C(Nc1ccc(S(N)(=O)=O)cc1)=C1/C(=O)Nc2ccccc21 [GW335962X],1.108
5,CCn1cnc2c(N)ncnc21 [GW345098X],1.056
6,NS(=O)(=O)c1ccc(N/N=C2\C(=O)Nc3cccc(CCc4ccncc4)c32)cc1 [GW352430A],1.031
7,O=C1Nc2ccc(C(=O)c3ccco3)cc2C1=Cc1cc(Cl)c(O)c(Cl)c1 [GW406108X],1.311
8,COC(=O)c1cncc(/C=C/c2c(C)cc(O)cc2C)c1 [GW406731X],0.8759
9,c1ccc(Oc2ccc(Nc3ccnc4ccc(-c5ccccn5)cc34)cc2)cc1 [GW407034X],0.6551
10,COc1cc2ncnc(Nc3ccc(C)c(O)c3)c2cc1OC [GW410563A],1.297
11,CN(C)c1ccc2c(c1)/C(=C/Nc1ccc(S(N)(=O)=O)cc1)C(=O)N2 [GW416469X],1.109
12,CC(C)COC(=O)c1ccc2c(c1)/C(=C/Nc1ccc(S(N)(=O)=O)cc1)C(=O)N2 [GW416981X],1.146
13,Cc1cc(O)cc(C)c1/C=C/c1cncc(C(=O)N(C)C)c1 [GW427984X],1.241
14,O=C1Nc2ccc(-c3cccnc3)cc2C1=Cc1cc(Br)c(O)c(Br)c1 [GW429374A],1.179
15,CNC(=O)Oc1cc(C)c(/C=C/c2cncc(C(=O)NC)c2)c(C)c1 [GW432441X],1.157
16,Fc1ccc(-c2nn3ccccc3c2-c2ccncc2)cc1 [GW434756X],0.1696
17,Cc1cc(O)cc(C)c1/C=C/c1cncc(C(N)=O)c1 [GW435821X],1.076
18,Cc1cc(O)cc(C)c1/C=C/c1cncc(C(=O)OC(C)(C)C)c1 [GW439255X],1.014
19,COc1cc2nccc(Nc3ccc(OCc4ccc(NC(C)=O)cc4)cc3)c2cc1OC [GW440135A],1.118
20,c1ccc(-c2ccc3c(Nc4ccc5[nH]ncc5c4)ccnc3c2)nc1 [GW440137A],1.678
21,c1ccc(-c2ccc3c(Nc4ccc5[nH]ccc5c4)ccnc3c2)nc1 [GW440138A],1.081
22,Cc1ccc(O)cc1Nc1ccnc2cc(-c3ccccn3)ccc12 [GW440139B],1.023
23,Cc1ccc(C(=O)Nc2ccc(Nc3ccnc4cc(-c5ccccn5)ccc34)cc2O)cc1 [GW440146A],2.166
